Columns and labels:
[1] = Drug loading of micelles (thin film hydration, HPLC); format: physicochemical; settings: drug encapsulated in dC18-1coi(P2K)-P750 micelles
Experimental: DOX, paclitaxel and rapamycin loaded micelles were prepared using identical procedures by thin film hydration method. dC18-1coi(P2K)-P750 and the different drugs were dissolved in methanol in a glass vial and the solvent was evaporated in vacuum oven for 3 hours. The dried film containing the conjugate and drug was rehydrated with 25 mM phosphate buffer, pH 7.4, and the solution was stirred for 16 hours to allow the assembly into drug loaded 3-helix micelles. Free drug was removed by centrifugation followed by spin ultrafiltration (Amicon centrifugal filter units, MW cutoff: 3000 Da). The concentrate obtained was washed with water and lyophilized to obtain drug loaded micelles. The drug loaded micelles were dissolved in methanol and loading was determined by reverse phase HPLC monitoring the absorbance of drugs at 280 nm. For all characterization experiments of drug loaded micelles, lyophilized powder of micellar-drugs was dissolved in 25 mM phosphate buffer, pH 7.4, and the solution was heated in water bath at 60° C. for an hour to break potential aggregates to obtain a clear solution.
The solvent was evaporated in vacuum oven for 3 hours. […] The salts and free drug were removed by centrifugation followed by spin ultrafiltration (Amicon centrifugal filter units, MW cutoff: 3000 Da). […]
Drug loading content was determined by HPLC. […]

NDL tumors [2] = test: Intravenous DOX-loaded micelles: organ fluorescence in NDL tumor mice; format: in vivo, FVB mice; settings: 24 and 72 h
[3] = CED, 20 μl, DOX 0.2 mg/ml, a week after infusion
NDL tumors [4] = settings: stated as known; cited from earlier work

| SMILES | Loading (wt %) [1] | fluorescence in different organs after free DOX injections (NDL tumors [2]) | brain tissue toxicity (H&E staining) [3] | clearance time from blood circulation (NDL tumors [4]) |
| --- | --- | --- | --- | --- |
| CC(=O)O[C@H]1C(=O)[C@@]2(C)[C@H]([C@H](OC(=O)c3ccccc3)[C@]3(O)C[C@H](OC(=O)[C@H](O)[C@@H](NC(=O)c4ccccc4)c4ccccc4)C(C)=C1C3(C)C)[C@]1(OC(C)=O)CO[C@@H]1C[C@@H]2O [Paclitaxel, paclitaxel] | 1.9 ± 0.4 wt % |  |  |  |
| COc1cccc2c1C(=O)c1c(O)c3c(c(O)c1C2=O)C[C@@](O)(C(=O)CO)C[C@@H]3O[C@H]1C[C@H](N)[C@H](O)[C@H](C)O1 [Doxorubicin, doxorubicin] | 7.6 ± 0.4 wt % | cannot be detected | significant tissue damage | tens of minutes |
